Data published in ChEMBL document CHEMBL1201862, “PubChem BioAssay data set” (2004).
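96-well plates; 48 h exposure; 5 concentrations. Endpoints by linear interpolation between flanking doses. Not reached: highest tested concentration assigned. The concentration for 50% growth inhibition is given as GI50.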 Calls of active or inactive are those of the source. Rule as the data show it: active = GI50 up to about 1.1 µM and inactive = higher.

How the values were obtained:
Test in all cases: DTP human tumour cell line panel, 48 h
A498 = test system: A498
COLO 205 = test system: COLO 205
HOP-92 = test system: HOP-92
K562 = test system: K562
M14 = test system: M14
MDA-MB-231 = test system: MDA-MB-231
MDA-MB-435 = test system: MDA-MB-435
MDA-N = test system: MDA-N
NCI-H23 = test system: NCI-H23
NCI-H522 = test system: NCI-H522
OVCAR-3 = test system: OVCAR-3
OVCAR-4 = test system: OVCAR-4
RPMI-8226 = test system: RPMI-8226
SK-MEL-5 = test system: SK-MEL-5
SNB-75 = test system: SNB-75
SW-620 = test system: SW-620
T47D = test system: T47D
TK-10 = test system: TK-10
UO-31 = test system: UO-31
SN12C = test system: SN12C

Row | SMILES | GI50 (A498) | GI50 (COLO 205) | GI50 (HOP-92) | GI50 (K562) | GI50 (M14) | GI50 (MDA-MB-231) | GI50 (MDA-MB-435) | GI50 (MDA-N) | GI50 (NCI-H23) | GI50 (NCI-H522) | GI50 (OVCAR-3) | GI50 (OVCAR-4) | GI50 (RPMI-8226) | GI50 (SK-MEL-5) | GI50 (SNB-75) | GI50 (SW-620) | GI50 (T47D) | GI50 (TK-10) | GI50 (UO-31) | GI50 (SN12C)
1 | C/C(CC(O)(C(F)(F)Cl)C(F)(F)Cl)=N\Nc1ccccc1 | 40 µM (inactive) | 31.8 µM (inactive) | 21.7 µM (inactive) | 35.5 µM (inactive) | 29.4 µM (inactive) | 47.6 µM (inactive) | 31.9 µM (inactive) | 43.6 µM (inactive) | 19.3 µM (inactive) | 28.5 µM (inactive) | 19.1 µM (inactive) | 63.7 µM (inactive) | 30.2 µM (inactive) | 19.1 µM (inactive) | 28.9 µM (inactive) | 31 µM (inactive) | 28.2 µM (inactive) | 38.4 µM (inactive) | 31.2 µM (inactive) | 
2 | CCC1=C(C=O)c2cc3[nH]c(cc4nc(c5c6[nH]c(cc1n2)c(C)c6C(=O)C5C(=O)OC)C(CCC(=O)OC)C4C)c(C)c3CC (stereo not drawn) | > 100 µM (inactive) | > 100 µM (inactive) | > 100 µM (inactive) | > 100 µM (inactive) | > 100 µM (inactive) | > 100 µM (inactive) | > 100 µM (inactive) | > 100 µM (inactive) | > 100 µM (inactive) | > 100 µM (inactive) | > 100 µM (inactive) | > 100 µM (inactive) | > 100 µM (inactive) | > 100 µM (inactive) | > 100 µM (inactive) | > 100 µM (inactive) | > 100 µM (inactive) | > 100 µM (inactive) | > 100 µM (inactive) | > 100 µM (inactive)
3 | O=C(O)C(Br)C(Br)c1ccccc1[N+](=O)[O-] (stereo not drawn) | > 100 µM (inactive) | > 100 µM (inactive) | > 100 µM (inactive) | > 100 µM (inactive) | > 100 µM (inactive) | > 100 µM (inactive) | > 100 µM (inactive) | > 100 µM (inactive) | > 100 µM (inactive) | 16.3 µM (inactive) | 46.9 µM (inactive) | > 100 µM (inactive) | > 100 µM (inactive) | > 100 µM (inactive) | > 100 µM (inactive) | > 100 µM (inactive) | > 100 µM (inactive) | > 100 µM (inactive) | 5.46 µM (inactive) | > 100 µM (inactive)
4 | O=C1N/C(=N/N=C\c2ccccc2)N/C1=C/c1ccccc1 | 30.9 µM (inactive) | 68.5 µM (inactive) | 22.2 µM (inactive) | 21.3 µM (inactive) | 45.4 µM (inactive) | 47 µM (inactive) | 17.1 µM (inactive) | 30.6 µM (inactive) | 21.7 µM (inactive) | 23.1 µM (inactive) | 32.2 µM (inactive) | 15.2 µM (inactive) | 26.6 µM (inactive) | 35.4 µM (inactive) | 25.6 µM (inactive) | 38.5 µM (inactive) | 30.3 µM (inactive) | 38.5 µM (inactive) | 41.9 µM (inactive) | 39.7 µM (inactive)
5 | O=S(=O)(SC1=NCCN1)c1ccc2ccccc2c1 | 92.7 µM (inactive) | 18.7 µM (inactive) | 51.1 µM (inactive) | 22.7 µM (inactive) | 23.3 µM (inactive) | 17.2 µM (inactive) | 20.7 µM (inactive) | 19.8 µM (inactive) | 22.9 µM (inactive) | 17.4 µM (inactive) | 27.5 µM (inactive) | 52.4 µM (inactive) | 26.4 µM (inactive) | 26.5 µM (inactive) | 25.2 µM (inactive) | 19.7 µM (inactive) | 81.7 µM (inactive) | 89.1 µM (inactive) | 29.4 µM (inactive) | 24.4 µM (inactive)
6 | Cc1cccc(O)c1-c1nnc(CCCCCCCCc2nnc(-c3c(C)cccc3O)n2N)n1N | > 100 µM (inactive) | > 31.6 µM (inactive) | 18 µM (inactive) | > 100 µM (inactive) | > 39.7 µM (inactive) | > 62.2 µM (inactive) | > 69.5 µM (inactive) | > 64.6 µM (inactive) | 48.6 µM (inactive) | 1.07 µM (active) | 50.5 µM (inactive) | 18.7 µM (inactive) | > 100 µM (inactive) | > 100 µM (inactive) | 25 µM (inactive) | > 100 µM (inactive) | > 100 µM (inactive) | > 41.4 µM (inactive) | 68.5 µM (inactive) | > 100 µM (inactive)
7 | Cc1ccc(Nc2nc3c(=O)n(C)c(=O)n(C)c3nc2Nc2ccc(C)cc2)cc1 | 16.5 µM (inactive) | 4.67 µM (inactive) | 11.4 µM (inactive) | 6.56 µM (inactive) |  | 13.7 µM (inactive) | 12.1 µM (inactive) | 11.3 µM (inactive) | 15.9 µM (inactive) | 1.15 µM (inactive) |  | 11.1 µM (inactive) | 7.62 µM (inactive) | 16.4 µM (inactive) | 15.4 µM (inactive) | 1.74 µM (inactive) | 15.5 µM (inactive) | 16.4 µM (inactive) | 12.1 µM (inactive) | 15.5 µM (inactive)
8 | COc1ccc(C(OCC2OC(n3cc(C)c(=O)[nH]c3=O)CC2n2cc(Cn3cc(Cl)c(=O)[nH]c3=O)nn2)(c2ccccc2)c2ccccc2)cc1 (stereo not drawn) | > 100 µM (inactive) | > 100 µM (inactive) | 28.8 µM (inactive) |  | > 100 µM (inactive) | 27.6 µM (inactive) | 7.18 µM (inactive) | 9.14 µM (inactive) | > 100 µM (inactive) | > 100 µM (inactive) | > 100 µM (inactive) | > 100 µM (inactive) | 4.31 µM (inactive) | > 100 µM (inactive) | > 100 µM (inactive) | > 100 µM (inactive) | > 100 µM (inactive) | > 100 µM (inactive) | > 100 µM (inactive) | > 100 µM (inactive)
9 | CC12OC3(C(O)C1O)C(C(=O)O[C@H]3CO[Si](C)(C)C(C)(C)C)C2S(=O)(=O)c1ccccc1 (stereo partly drawn) | > 100 µM (inactive) |  | 38.3 µM (inactive) | 37.8 µM (inactive) | 51.2 µM (inactive) | 60.3 µM (inactive) | 34.4 µM (inactive) | 61.4 µM (inactive) |  | 17.5 µM (inactive) | 40.6 µM (inactive) | 34 µM (inactive) | 27.1 µM (inactive) |  | 13.9 µM (inactive) | 81.5 µM (inactive) | 36.1 µM (inactive) | 59.8 µM (inactive) | 40.8 µM (inactive) | > 100 µM (inactive)
10 | CC(C)OC(=O)NNc1c(Cl)cc(Cl)cc1Cl | 30.5 µM (inactive) | 49.1 µM (inactive) | 23.2 µM (inactive) | 55.6 µM (inactive) | 51.5 µM (inactive) | > 100 µM (inactive) | 82.8 µM (inactive) | 55 µM (inactive) | > 100 µM (inactive) | 30.1 µM (inactive) | 56 µM (inactive) |  | 43.4 µM (inactive) | 22.5 µM (inactive) | 99.5 µM (inactive) | > 100 µM (inactive) | 33.7 µM (inactive) | 37.7 µM (inactive) | 55.8 µM (inactive) | > 100 µM (inactive)
11 | Cc1ccc(NC(=O)CSc2nc(C)nc3c2sc(=S)n3-c2ccccc2)cc1 | > 10 µM (inactive) | 6.15 µM (inactive) | 2.71 µM (inactive) | > 10 µM (inactive) | 2.79 µM (inactive) | 6.3 µM (inactive) | 4.06 µM (inactive) | > 10 µM (inactive) | > 10 µM (inactive) | > 10 µM (inactive) | 5.37 µM (inactive) | 2.2 µM (inactive) | > 10 µM (inactive) | > 10 µM (inactive) | 2.32 µM (inactive) | > 10 µM (inactive) | > 10 µM (inactive) | > 10 µM (inactive) |  | 6.49 µM (inactive)
12 | COC1CC(N)(c2ccccc2)C(O)C(C)O1 (stereo not drawn) | > 100 µM (inactive) | > 100 µM (inactive) | > 100 µM (inactive) | > 100 µM (inactive) | > 100 µM (inactive) | > 100 µM (inactive) | > 100 µM (inactive) | > 100 µM (inactive) | > 100 µM (inactive) | > 100 µM (inactive) | > 100 µM (inactive) | > 100 µM (inactive) | > 100 µM (inactive) | > 100 µM (inactive) | > 100 µM (inactive) | > 100 µM (inactive) | > 100 µM (inactive) |  | > 100 µM (inactive) | > 100 µM (inactive)
13 | COc1c(OC)c(O)c2c(=O)c(OC)c(-c3ccc4c(c3)OCO4)oc2c1O | > 100 µM (inactive) | > 100 µM (inactive) | 1.39 µM (inactive) | 85.3 µM (inactive) | > 100 µM (inactive) | > 100 µM (inactive) | > 100 µM (inactive) | > 100 µM (inactive) | > 100 µM (inactive) | > 100 µM (inactive) | > 100 µM (inactive) | > 100 µM (inactive) |  | 38.2 µM (inactive) | > 100 µM (inactive) | > 100 µM (inactive) | 24.5 µM (inactive) | > 100 µM (inactive) | > 100 µM (inactive) | > 100 µM (inactive)
14 | O=c1c2c3c(sc2nc(S)n1-c1ccccc1)CCCc1ccc([N+](=O)[O-])cc1-3 | 41 µM (inactive) | > 100 µM (inactive) | 20.6 µM (inactive) | 11.7 µM (inactive) | > 100 µM (inactive) | > 100 µM (inactive) | 49.5 µM (inactive) | 86.5 µM (inactive) | 30.5 µM (inactive) | 13.9 µM (inactive) | 32.1 µM (inactive) | 38.9 µM (inactive) | 22.6 µM (inactive) | 25.7 µM (inactive) |  | 10.4 µM (inactive) | 17.5 µM (inactive) | > 100 µM (inactive) | 26.9 µM (inactive) | 37.7 µM (inactive)
